The values that follow come from ChEMBL document CHEMBL1201862, “PubChem BioAssay data set” (2004).

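96-well plates; 48 h exposure; 5 concentrations. Endpoints by linear interpolation between flanking doses. Not reached: highest tested concentration assigned. GI50 = concentration required for 50% inhibition of growth.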 Active and inactive are the calls of the source. Cut-off read from the data, not from the text of the source: active = GI50 up to about 1.1 µM and inactive = higher.

Some test systems named below: SN12C; OVCAR-3; NCI-H226; K562; ACHN; Malme-3M; SNB-19; UACC-62; KM12; BT-549; NCI-H460; MDA-N; LOX IMVI; SF-295; Hs-578T; CAKI-1; SK-MEL-2; MDA-MB-435; DU-145.
What all share (assay): NCI tumour cell line growth inhibition, 48 h

Consider `c1ccc2cc(CNCCOCCOCCNCc3ccc4ccccc4c3)ccc2c1`, for which the GI50 was 2.16 µM (inactive) with SN12C; 1.67 µM (inactive) in the assay on OVCAR-3; 2.09 µM (inactive) in the assay on NCI-H226; 0.446 µM (active) in the assay with K562; 1.79 µM (inactive) in the assay with ACHN; 1.76 µM (inactive) with Malme-3M. The GI50 in the assay with SNB-19 was 2.31 µM (inactive); in the assay with UACC-62, 2.06 µM (inactive); in the assay with KM12 it was 1.6 µM (inactive); with BT-549 it was 1.78 µM (inactive); in the assay on NCI-H460, 1.64 µM (inactive); in the assay on MDA-N it was 1.65 µM (inactive). In addition, the GI50 in the assay on LOX IMVI was 1.46 µM (inactive); in the assay on SF-295 it was 1.64 µM (inactive); in the assay with Hs-578T it was 1.57 µM (inactive); in the assay with CAKI-1 it was 1.81 µM (inactive); in the assay with SK-MEL-2, 1.91 µM (inactive); in the assay with MDA-MB-435, 1.8 µM (inactive). Besides, the GI50 in the assay on DU-145 is 1.78 µM (inactive).

With `CO[C@H]1C=C[C@]23c4cc5c(cc4CN(CC2O)[C@@H]3C1)OCO5` (stereo not given in full), the GI50 in the assay with SN12C is 3.3 µM (inactive); in the assay with OVCAR-3, 1.9 µM (inactive); in the assay with NCI-H226, 6.9 µM (inactive); with K562 it was 2.04 µM (inactive); with ACHN, 0.678 µM (active); in the assay with Malme-3M, 2.15 µM (inactive). Also, the GI50 in the assay on SNB-19 was 2.17 µM (inactive); with UACC-62, 2.18 µM (inactive); in the assay with KM12 it was 3.09 µM (inactive); in the assay on BT-549 it was 2.36 µM (inactive); in the assay with NCI-H460, 1.53 µM (inactive); in the assay with MDA-N it was 3.93 µM (inactive). Further, the GI50 was 2.18 µM (inactive) with LOX IMVI; 0.375 µM (active) in the assay with SF-295; 2.97 µM (inactive) with Hs-578T; 3.59 µM (inactive) with CAKI-1; 1.08 µM (active) in the assay with SK-MEL-2; 2.81 µM (inactive) in the assay on MDA-MB-435. Also, the GI50 in the assay with DU-145 was 0.668 µM (active).

On to `Cn1nc(-c2ccccc2)c2c(-c3ccccc3)c3cc(Cl)ccc3nc21`, for which the GI50 in the assay with SN12C, in the assay on OVCAR-3, in the assay on NCI-H226, in the assay on K562, in the assay on ACHN and with Malme-3M was > 100 µM (inactive) throughout. Besides, the GI50 is > 100 µM (inactive) in the assay with SNB-19; > 100 µM (inactive) with UACC-62; > 100 µM (inactive) in the assay with KM12; > 100 µM (inactive) with BT-549; 75.7 µM (inactive) in the assay on NCI-H460; > 100 µM (inactive) with MDA-N. Further, the GI50 in the assay on LOX IMVI was > 90.4 µM (inactive); in the assay on SF-295, 97.1 µM (inactive); with Hs-578T, > 76.4 µM (inactive); in the assay with CAKI-1 it was > 100 µM (inactive); in the assay with SK-MEL-2, > 100 µM (inactive); with MDA-MB-435 it was > 100 µM (inactive). Moreover, in the assay on DU-145, the GI50 is > 100 µM (inactive).

Regarding `Oc1c(CN2CCCC2)ccc2cccnc12`, the GI50 with SN12C was 19.3 µM (inactive); with OVCAR-3, 23.9 µM (inactive); with NCI-H226, 21.5 µM (inactive); in the assay on K562 it was > 33.5 µM (inactive); in the assay with ACHN, 3.55 µM (inactive); with Malme-3M it was 25.1 µM (inactive). Further, the GI50 with SNB-19 was 18.3 µM (inactive); in the assay on UACC-62 it was 26.2 µM (inactive); with KM12, 24.8 µM (inactive); in the assay with BT-549, 46.1 µM (inactive); in the assay on NCI-H460, 20.3 µM (inactive); in the assay with MDA-N, 39.4 µM (inactive). The GI50 with LOX IMVI is 15.5 µM (inactive); in the assay with SF-295 it was 13 µM (inactive); with Hs-578T it was > 83.4 µM (inactive); in the assay with CAKI-1 it was 6.04 µM (inactive); in the assay on SK-MEL-2, > 47 µM (inactive); in the assay on MDA-MB-435 it was 38.9 µM (inactive). The GI50 in the assay with DU-145 was 23.2 µM (inactive).

On to `Cn1c2ccccc2c(=NNc2ccc(S(=O)(=O)N=C(N)N)cc2)c2ccccc21`, for which the GI50 with SN12C was 8.63 µM (inactive); in the assay on OVCAR-3, 7.35 µM (inactive); in the assay with NCI-H226, 4.49 µM (inactive); in the assay on K562, 4.39 µM (inactive); with ACHN it was 4.55 µM (inactive); with Malme-3M, 8.26 µM (inactive). For the same compound, the GI50 is 10.6 µM (inactive) in the assay on SNB-19; 15.4 µM (inactive) with UACC-62; 7.98 µM (inactive) in the assay on KM12; 9.42 µM (inactive) with BT-549; 3.37 µM (inactive) in the assay with NCI-H460; 12.4 µM (inactive) in the assay with MDA-N. Moreover, the GI50 in the assay with LOX IMVI is 5.02 µM (inactive); in the assay on SF-295 it was 13.3 µM (inactive); with Hs-578T, 17.6 µM (inactive); in the assay on CAKI-1, 10.8 µM (inactive); in the assay on SK-MEL-2, 13.5 µM (inactive); with MDA-MB-435 it was 11 µM (inactive). The GI50 in the assay on DU-145 is 11.2 µM (inactive).

Regarding `O=c1c(C(c2ccc(/C=C/c3ccccc3)cc2)c2c(O)oc3cc(O)ccc3c2=O)c(O)oc2cc(O)ccc12`, the GI50 in the assay on SN12C is 48.4 µM (inactive); in the assay on OVCAR-3 it was > 100 µM (inactive); in the assay on NCI-H226, > 100 µM (inactive); in the assay on K562 it was 91.4 µM (inactive); in the assay on ACHN it was > 100 µM (inactive); with Malme-3M, > 100 µM (inactive). Moreover, the GI50 with SNB-19 was > 100 µM (inactive); with UACC-62 it was > 100 µM (inactive); in the assay with KM12, > 100 µM (inactive); in the assay with BT-549, 98.9 µM (inactive); in the assay with NCI-H460, > 100 µM (inactive); with MDA-N, 53.5 µM (inactive). Moreover, the GI50 is 36.7 µM (inactive) with LOX IMVI; > 100 µM (inactive) in the assay on SF-295; 56.6 µM (inactive) in the assay with Hs-578T; 55.3 µM (inactive) in the assay with CAKI-1; > 100 µM (inactive) in the assay on SK-MEL-2; 82.2 µM (inactive) in the assay on MDA-MB-435. The GI50 in the assay with DU-145 was > 100 µM (inactive).

For the compound `Cc1c(C)c(C)c(CSC(=N)N)c(C)c1C`, the GI50 in the assay on SN12C was 16.3 µM (inactive); in the assay on OVCAR-3, 16.5 µM (inactive); in the assay with NCI-H226, 13.6 µM (inactive); with K562 it was 12.2 µM (inactive); with ACHN it was 16.6 µM (inactive); in the assay with Malme-3M, 15.9 µM (inactive). Besides, the GI50 was 14.6 µM (inactive) in the assay on SNB-19; 11.9 µM (inactive) with UACC-62; 18.4 µM (inactive) in the assay on KM12; 16.4 µM (inactive) in the assay with BT-549; 13.2 µM (inactive) with NCI-H460; 16.9 µM (inactive) with MDA-N. Moreover, the GI50 in the assay with LOX IMVI was 26.2 µM (inactive); with SF-295, 7.52 µM (inactive); with Hs-578T, 15.6 µM (inactive); in the assay with CAKI-1, 11.5 µM (inactive); with SK-MEL-2 it was 14.6 µM (inactive); in the assay with MDA-MB-435, 14.2 µM (inactive). In addition, in the assay on DU-145, the GI50 was 16.9 µM (inactive).

Consider `CCCCc1ccc(Nc2ncc3ncn(COCCO)c3n2)cc1`, for which the GI50 with SN12C is 46.2 µM (inactive); in the assay with OVCAR-3, 22.8 µM (inactive); in the assay on NCI-H226, 62.2 µM (inactive); in the assay with K562, 14 µM (inactive); with ACHN it was 26.1 µM (inactive); in the assay on Malme-3M it was 23.1 µM (inactive). Also, the GI50 with SNB-19 was 44.3 µM (inactive); in the assay with UACC-62, 25.6 µM (inactive); with KM12, 27.3 µM (inactive); in the assay on BT-549, 36.1 µM (inactive); in the assay on NCI-H460, 22.4 µM (inactive); with MDA-N, 32 µM (inactive). Moreover, the GI50 in the assay on LOX IMVI was 17.9 µM (inactive); in the assay on SF-295, 27.3 µM (inactive); in the assay on Hs-578T it was 20.8 µM (inactive); in the assay on CAKI-1, 49.1 µM (inactive); with SK-MEL-2, 25.2 µM (inactive); with MDA-MB-435 it was 29.4 µM (inactive). For the same compound, the GI50 with DU-145 was 33.3 µM (inactive).

As to `COc1cc2c(cc1O)C1CC(CC3CCCCN31)OC(=O)/C=C\c1ccc(O)c-2c1` (stereo not given), the GI50 with SN12C is 37.2 µM (inactive); in the assay with OVCAR-3, 21.3 µM (inactive); in the assay with NCI-H226, 41.4 µM (inactive); in the assay on K562, 28 µM (inactive); in the assay on ACHN, 31.6 µM (inactive); in the assay with Malme-3M, 19.5 µM (inactive). The GI50 with SNB-19 was 63 µM (inactive); in the assay on UACC-62 it was 18 µM (inactive); in the assay on KM12, 16.4 µM (inactive); with BT-549 it was 27.9 µM (inactive); in the assay with NCI-H460 it was 37.1 µM (inactive); in the assay with MDA-N, 35.9 µM (inactive). In addition, the GI50 was 16.7 µM (inactive) in the assay on LOX IMVI; 13.5 µM (inactive) in the assay on SF-295; 18.3 µM (inactive) in the assay on Hs-578T; 23.1 µM (inactive) in the assay with CAKI-1; 26.5 µM (inactive) in the assay on SK-MEL-2; 21.9 µM (inactive) with MDA-MB-435. For the same compound, in the assay on DU-145, the GI50 is 27.7 µM (inactive).

On to `CC1(CC(=O)O)OC2CCCCCC2O1.NCc1ccccc1` (stereo not given), for which the GI50 is > 100 µM (inactive) in the assay with SN12C; > 100 µM (inactive) in the assay on OVCAR-3; > 100 µM (inactive) with NCI-H226; 57.8 µM (inactive) in the assay with K562; > 100 µM (inactive) with ACHN; > 100 µM (inactive) with Malme-3M. Moreover, the GI50 was > 100 µM (inactive) in the assay on SNB-19; > 100 µM (inactive) in the assay on UACC-62; 64.6 µM (inactive) in the assay on KM12; > 100 µM (inactive) in the assay with BT-549; > 100 µM (inactive) in the assay on NCI-H460; 73.8 µM (inactive) in the assay on MDA-N. Also, the GI50 in the assay with LOX IMVI, with SF-295, in the assay with Hs-578T, in the assay on CAKI-1, with SK-MEL-2 and in the assay on MDA-MB-435 was > 100 µM (inactive) throughout. Moreover, the GI50 in the assay with DU-145 was > 100 µM (inactive).
